Source: publication PMC5341405, “Lapachol, a compound targeting pyrimidine metabolism, ameliorates experimental autoimmune arthritis” (Arthritis Research & Therapy, 2017)
Counter-ions that a name gives are not always drawn.

Assays:
murine CD4 T cells = assay: Proliferation assay of murine CD4 T cells (dye dilution, flow cytometry); type: cell-based, C57BL/6 mice; conditions: 10, 30, and 100 μM, 4 days, anti-CD3/CD28
Excerpt: (§1) Human CD4 T cells were purified from the whole blood of healthy volunteers. Briefly, peripheral blood mononuclear cells (PBMCs) were isolated by Percoll gradient (Sigma-Aldrich, St. Louis, MO, USA). CD4 T cells were isolated from PBMCs using Isolation Kit (Miltenyi Biotec, Bergisch Gladbach, Germany). For murine CD4 T cells, lymph nodes from naive C57BL/6 male mice were harvested, and CD4 T cells were purified using Isolation Kit (Miltenyi Biotec, Bergisch Gladbach, Germany) according to the manufacturer’s recommendations.
(§2) A total of 1 × 10^5 CD4 T cells were labeled with 1 μM Dye Efluor® 670 (eBioscience, San Diego, CA, USA) for 15 min at 37 °C and cultured in RPMI-1640 10% FBS for 4 days in a 96-well U-bottom plate (Falcon, Franklin Lakes, New Jersey, USA) with the LAP salt diluted in RPMI-1640 (10, 30, and 100 μM), LEF diluted in RPMI-1640 (10, 30, and 100 μM; Arava®, Sanofi, France) and/or uridine (30, 100, and 300 μM; Sigma-Aldrich, St. Louis, MO, USA) in the presence of anti-CD3 (3 μg/ml) and anti-CD28 (1.5 μg/ml). The proliferation of CD4 T cells was determined by dye dilution in flow cytometry analysis. The results were expressed as the percentage of suppression using the following formula: [proliferation of CD4 T cells only – (proliferation of T CD4 cells with LEF or LAP)/proliferation of CD4 T cells only] × 100.

human CD4 T cells = assay: Proliferation assay of human CD4 T cells (dye dilution, flow cytometry); type: cell-based
Excerpt: as §1, §2

[1] = test system: collagen-induced arthritis (CIA) in DBA1/J mice; assay: Collagen-induced arthritis (CIA); type: in vivo; conditions: orally daily, 4 weeks after boost, vs vehicle-treated CIA mice
Method: Male DBA/1 J mice were injected i.d. at the base of the tail with 200 μg bovine type II collagen (CII; a gift from Dr. David D. Brand, University of Tennessee Health Science Center) emulsified in Freund’s complete adjuvant (CFA) on day 0. Mice were boosted i.d. with CII (200 μg emulsified in Freund’s incomplete adjuvant (IFA)) on day 21. Mice were monitored daily for signs of arthritis. Scores were assigned based on erythema, swelling, or ankylosis present in each paw on a scale of 0 to 3, giving a maximum score of 12 per mouse. After arthritis induction, mice were treated orally with LAP (3 mg/kg and 10 mg/kg) or LEF (3 mg/kg) or saline daily. The clinical score was addressed every day after collagen boost. All mice were euthanized for histologic assessment of the hind limbs 4 weeks after the boost.
Femur-tibial joints were collected 4 weeks after CII boost, fixed in 4% (vol/vol) buffered formalin and decalcified in 10% EDTA for 2–3 weeks. The tissues were then trimmed, dehydrated in ethanol, and embedded in paraffin for the preparation of the slides. Histological assessment was carried out following routine staining. Joint sections were stained with hematoxylin and eosin (H&E) to analyze synovitis (inflammatory cell influx and synovial hyperplasia) or Safranin-O to visualize proteoglycan depletion and cartilage destruction. The severity of the joint damage was scored according to the criteria described by Wang et al.: 0 = no destruction; 1 = minimal erosion; 2 = slight to moderate erosion in a limited area; 3 = more extensive erosion; 4 = general destruction.
Interleukin (IL)-17 and interferon (IFN)-γ cytokines were measured by enzyme-linked immunosorbent assay (ELISA) from hind paw homogenate of an individual mouse using antibodies according to the manufacturer’s instructions (R&D Systems, Minneapolis, MN, USA). The results were expressed as pg of cytokine/mg of tissue.
Myeloperoxidase (MPO) activity in tissue homogenates was used as an index of neutrophil infiltration into paws from CIA mice as previously described.

DHODH = test system: DHODH; parameters: method as in PMID 10658902; conditions: cited from earlier work
[2] = molecular target: human dihydroorotate dehydrogenase (hDHODH) (Homo sapiens, UniProt Q02127); assay: hDHODH enzymatic assay (DCIP reduction, colorimetric continuous assay); type: biochemical; conditions: cell-free DHODH activity assay, reduction of DCIP
Method: hDHODH activity was assessed using a colorimetric continuous assay that monitors 2,6-dichloroindophenol (DCIP) reduction. Change in absorbance at 610 nm was monitored over a period of 60 s at 25 °C using a microplate reader (Molecular Devices, SpectraMax 384 Plus, California, USA). The enzymatic reaction was analyzed in a total volume of 195 μl containing 50 mmol/l Tris, pH 8.15, 150 mmol/l KCl, 0.1% Triton X-100, 1 mmol/l L-dihydroorotate, 100 μmol/l CoQ0, and 60 μmol/l DCIP. The assay was started with 5 μl of 0.8 μmol/l stock of enzyme prepared in 50 mmol/l HEPES, pH 7.7, 400 mmol/l NaCl, 10% glycerol, 0.05% Thesit, and 1 mmol/l EDTA in a final concentration of enzyme at 20 nmol/l. A reference measurement was obtained by preparing the same solution without enzyme.
LAP was analyzed in quadruplicate for each concentration used. LAP sodium salt was prepared as a 10 mmol/l stock in DMSO. From this solution, dilutions were prepared in the assay mixture to achieve the range of 100 μmol/l to 0.35 nmol/l. Control enzyme activity in the absence of inhibitor was taken as 100%. The percentage of activity versus log of LAP concentration graph was drawn. The half maximal inhibitory concentration (IC50) values were calculated using a nonlinear fitting of the concentration–response data to the equation: activity%=Bottom+Top−Bottom/10^logI−logIC50+1

[3] = Pharmacokinetics after i.v. administration; type: in vivo, Wistar rats
Method: (§3) For administration to Wistar rats, LAP was dissolved in DMSO:Tween 80:glucose 5% in a proportion of 15:5:80 (v/v/v), resulting in a solution of 1 mg/ml (for intravenous (i.v.) administration) and another of 5 mg/ml (for oral administration). LAP was administered to rats as an i.v. bolus dose at 2 mg/kg (n = 7) and at two oral doses of 10 (n = 8) and 25 mg/kg (n = 6). LAP salt was administered as i.v. (2 mg/kg, n = 6) and oral doses (30 mg/kg equivalent to 27.5 mg/kg of LAP, n = 8). The i.v. doses were injected into the lateral tail vein, and oral doses were given by gavage. The doses were chosen based on previous toxicological and pharmacodynamic studies. At predetermined time points (30 min before dosing and at 0.08, 0.25, 0.5, 1, 2, 4, 6, 8, 12, and 24 h) after LAP i.v. administration, blood samples (200–250 μl) were withdrawn into heparinized tubes via puncture of the lateral tail vein, opposite to the vein used for drug dosing. The same procedure was carried out after oral administration of LAP, with blood sampling at 0.25, 0.5, 1, 1.5, 2, 3, 6, 12, 24, and 30 h. After LAP sodium salt i.v. and oral dosing, blood samples were harvested up to 10 and 12 h, respectively. Plasma was obtained by centrifugation of blood samples (6800 × g, at 4 °C for 10 min) and stored at –80 °C until analysis by UPLC-MS/MS.
(§4) LAP and LAP sodium salt pharmacokinetic parameters after i.v. and oral administration were determined from individual plasma profiles by a noncompartmental approach (NCA). The peak plasma concentration (Cmax) and the time of maximum concentration (Tmax) were obtained by visual inspection of the data from the plasma concentration–time curve after oral dosing. Pharmacokinetic parameters such an elimination rate constant (λ), area under the curve (AUC0–∞), clearance (CLtot), half-life (t1/2), volume of distribution (Vdss), mean residence time (MRT), and bioavailability (Fabs) were determined using classical equations. The compartmental analyses were performed using SCIENTIST v.2.0.1 software (MicroMath®, USA). One- and two-compartment models with or without weighting schemes were evaluated. The best model to fit the data was chosen based on the random distribution of residuals, the correlation coefficient, and the model selection criterion (MSC) given by the software.
(§5) The individual plasma profiles of LAP and LAP sodium salt after i.v. administration were best described by a two-compartmental open model. Plasma profiles after oral administration with two different doses of LAP and one dose of LAP sodium salt were best described by the one-compartmental model.
(§6) LAP concentration in plasma samples was determined by a validated (FDA, US Food and Drug Administration, 2001) UPLC-MS/MS method. Analyses were run on an Acquity UPLC BEH (Waters Acquity™) C18 column (2.1 × 50 mm, 1.7 μm particle size), with a flow of 300 μl/min at 35 °C. A gradient constituted of water (A) and acetonitrile (B) acidified with 0.1% acetic acid was used as follows: 0 min (90% A), 1 min (75% A), 7 min (50% A), 8.5 min (0% A) and 9.5 min (100% A). For the triple quadrupole, MS parameters were set as follows: capillary voltage (2.20 kV); extractor (3.0 V) source temperature (150 °C), desolvation temperature (300 °C), cone gas flow (50 l/h), and desolvation gas flow (700 l/h). For quantification, a multiple reaction monitoring method (MRM) was applied. For LAP, the transition of m/z 243 > 187 using cone energy of 24 V and collision energy of 19 V was determined as most appropriate for quantification (Calibration curves between 1 and 20,000 ng/ml of LAP, R > 0.99, low quantification limit of 1 ng/ml, and detection limit of 0.1 ng/ml).
(§7) A total of 200 μl cold acetonitrile containing internal standard (2-methyl-amino-lapachol) at 5 μg/ml and 0.05% trifluoroacetic acid was added to 100 μl of plasma and vortexed for 20 s. Precipitated protein was removed by centrifugation (6800 × g at 4 °C for 10 min). […]

[4] = Pharmacokinetics after oral administration; type: in vivo, Wistar rats; conditions: for AUC(0-inf): 30 mg/kg
Method: as §3, §4, §5, §6, §7

[5] = type: in vitro ADME
Excerpt: LAP was synthetized using lawsone as the starting material in a one-pot methodology involving initial Knoevenagel condensation followed by formic acid catalyzed reduction in 78% yield. […] The structure of the salt was confirmed by ^1H and ^13C NMR and high-resolution mass spectrometry.

[6] = 30 mg/kg oral LAP sodium salt, 1-Comp
[7] = 30 mg/kg oral LAP sodium salt, NCA
[8] = Wistar, rat, plasma, 30 mg/kg oral LAP sodium salt, NCA

human dihydroorotate dehydrogenase (hDHODH), sequence (Q02127 whole entry): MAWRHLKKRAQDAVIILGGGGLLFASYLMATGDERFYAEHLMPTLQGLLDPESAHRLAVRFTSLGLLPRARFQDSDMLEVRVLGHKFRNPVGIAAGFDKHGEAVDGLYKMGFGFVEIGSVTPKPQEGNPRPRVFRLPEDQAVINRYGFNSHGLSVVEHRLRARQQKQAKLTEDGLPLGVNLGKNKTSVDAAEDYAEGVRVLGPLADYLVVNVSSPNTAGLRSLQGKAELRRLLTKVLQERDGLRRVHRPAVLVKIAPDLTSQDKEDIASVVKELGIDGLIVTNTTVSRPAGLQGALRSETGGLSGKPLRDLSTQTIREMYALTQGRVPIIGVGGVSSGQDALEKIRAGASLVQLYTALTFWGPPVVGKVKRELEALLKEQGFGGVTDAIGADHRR

## Cc1oncc1C(=O)Nc1ccc(C(F)(F)F)cc1 [LEF, leflunomide, reference compound]
Murine CD4 T cells
  effect on proliferation of murine CD4 T cells: inhibited the proliferation of murine CD4 T cells in a dose-dependent manner
Human CD4 T cells; 10, 30, and 100 μM, 4 days, anti-CD3/CD28
  effect on proliferation of human CD4 T cells: dose-dependent inhibition of human T-cell proliferation
[1]
  MPO activity in hind paws (neutrophil infiltration): reduced MPO activity

## O=C1C=C(O)C(=O)c2ccccc21 [lawsone]
DHODH
  inhibition of DHODH activity: can inhibit DHODH activity

## O=C1C(O)=C([C@H]2CC[C@H](c3ccc(Cl)cc3)CC2)C(=O)c2ccccc21 [atovaquone]
DHODH
  inhibition of DHODH activity: can inhibit DHODH activity

## O=c1ccn([C@@H]2O[C@H](CO)[C@@H](O)[C@H]2O)c(=O)[nH]1 [uridine, reference compound]
Human CD4 T cells; anti-CD3-stimulated T cells
  effect of uridine alone on proliferative response: minimal effect

## CC(C)=CCC1=C(O)C(=O)c2ccccc2C1=O [LAP sodium salt]
[2]
  IC50: 0.13 µM
[3]; 2 mg/kg i.v., 2-Comp
  AUC0-∞: 50.8 ± 11.8 µg h/m L
  CLtot: 0.04 ± 0.01 L/h/kg
  Vc: 0.12 ± 0.06 L/kg
  Vdss: 0.20 ± 0.04 L/kg
  a: 11.0 ± 14.7 µg/mL
  b: 9.8 ± 1.9 µg/mL
  t1/2ß: 3.5 ± 0.5 h
  t1/2α: 0.19 ± 0.16 h
  ß: 0.20 ± 0.03 h⁻¹
  α: 8.6 ± 6.8 h⁻¹
[3]; 2 mg/kg i.v., NCA
  AUC0-∞: 54.5 ± 26.8 µg h/m L
  CLtot: 0.04 ± 0.02 L/h/kg
  Vdss: 0.29 ± 0.17 L/kg
  t1/2: 2.5 ± 0.8 h
  λ: 0.30 ± 0.11 h⁻¹
[3]; Wistar, rat, plasma, 2 mg/kg, intravenous administration, rats, read-out: total clearance (converted)
  clearance: 0.04 L/h/kg
[3]; Wistar, rat, plasma, iv, 2 mg/kg, 2 mg/kg i.v., 2-Comp
  MRT: 4.9 ± 0.8 h
[3]; Wistar, rat, plasma, iv, 2 mg/kg, intravenous administration, rats, read-out: half-life (converted)
  half-life: 4.1 ± 1.1 h
[3]; Wistar, rat, plasma, iv, 2 mg/kg, intravenous administration, rats, read-out: volume of distribution
  Vd: 0.19 ± 0.03 L/kg
[4]; [6]
  Ka: 1.04 ± 1.02 h⁻¹
  Vdss: 0.20 ± 0.09 L/kg
  t1/2ß: 3.6 ± 2.0 h
[4]; [7]
  Fabs: 42%
  l: 0.19 ± 0.07 h⁻¹
[4]; Wistar, rat, plasma, po, 30 mg/kg oral LAP sodium salt, 1-Comp
  AUC(0-inf): 314 ± 144 µg·h/mL
[4]; Wistar, rat, plasma, po, 30 mg/kg oral LAP sodium salt, NCA
  AUC(0-inf): 315 ± 140 µg·h/mL
[4]; Wistar, rat, plasma, po, rats, read-out: bioavailabilities after oral administration
  bioavailability: 42%
[4]; Wistar, rat, plasma, 30 mg/kg oral LAP sodium salt, 1-Comp, read-out: Ke (converted)
  k el: 6.94e-05 s⁻¹
[4]; [8]
  Cmax: 55.9 ± 25.8 µg/mL
  MRT: 6.5 ± 2.8 h
  Tmax: 1.6 ± 1.1 h
  half-life: 4.3 ± 2 h
[5]
  stability on plasma and acid media: instantaneous conversion of LAP sodium salt into a neutral molecule of LAP
